Experimental data as given in US20090275667A1, “USE OF ALLICIN AS PRESERVATIVE, AS DISINFECTANT, AS ANTIMICROBIAL OR AS BIOCIDAL AGENT” (Stone Island Holdings Ltd, priority 2003, published 2009).

What was measured:
[1] = tested on: E. coli and Salmonella growth; test: Preservation of hamburger meat samples against bacterial growth; format: cell-based; conditions: for time bacterial overgrowth prevented: 10 kg hamburger meat
From the text: A range of concentrations of liquid allicin (0 ppm to 500 ppm) was applied to 10 kg samples of hamburger meat to determine how long bacterial growth could be prevented. These tests were compared to the normal use of existing preservatives (including nitrates and phosphates).
To test for bacterial growth, small samples of meat were cut from the test piece of meat and, using standard methods of analysis, were checked for E. coli and Salmonella growth.

[2] = tested on: Paenibacillus larvae subsp. larvae; test: Inhibition of bacterial growth in broth by Allicin (Study 2); format: cell-based; parameters: key: +: Growth present; +^a: weak growth seen, occurred later than lower concentrations; conditions: 34° C.
Protocol: (§1) Allicin liquid (nominal concentration=1000 ppm. ai) was obtained from Allicin International Ltd and kept refrigerated.
(§2) The bacteria tested were Paenibacillus larvae subsp. larvae, Melissococcus plutonium, Brevibacillus laterosporus and Paenibacillus alvei. All isolates were freshly isolated from diseased material sent to the NBU diagnostic laboratory.
(§3) P. larvae subsp. larvae, B. laterosporus and P. alvei were grown on brain heart infusion plus thiamine (BHIT) agar and broth (SOP NBU/014) under aerobic conditions and M. plutonius was grown on SYPG agar and broth (SOP NBU/015) under anaerobic conditions. All experiments were carried out at 34° C. The concentrations of Allicin liquid investigated were 500, 250, 100, 50, 25 and 10 ppm. Broth was made up at twice the usual concentration, so that when the Allicin-containing component was added, the medium was at the correct strength for bacterial growth. Allicin solution was diluted in sterile deionised water to give the desired concentration when added to autoclaved broth. […] Further controls were included, which were the media plus an appropriate volume of Allicin, but not inoculated with bacteria. This would indicate if there were any bacteria present in the test item that may influence the results seen. Both aerobic and anaerobic controls were included.
(§4) Bacteria were isolated from diseased samples and subcultured on agar plates until pure, when they were inoculated into broth cultures. Cultures of M. plutonius were isolated anaerobically, then plated out and incubated both aerobically and anaerobically, to confirm that the isolate investigated was this bacterium. A similar microbe, Enterococcus faecalis, can sometimes be isolated from EFB-infected samples and is morphologically difficult to distinguish from M. plutonius. However, the former bacterium grows very well aerobically, whereas M. plutonius is unable to replicate. Thus, if an isolate is able to grow aerobically, it is not M. plutonius. This control mechanism was used throughout the experimental procedures to ensure that the correct organism was tested.
(§5) Each bacterium was freshly grown in a test tube containing 5 ml broth. A loopful (5 μl) of this bacterial suspension was removed from the culture and inoculated into each test tube according to SOP NBU/131. The same inoculum source for each strain was used for all Allicin dilutions, and all experiments were done in triplicate.
(§6) Where growth occurred in the presence of Allicin, one replicate from each concentration for each bacterium was plated out on the appropriate agar to identify the bacteria that had grown in the broth, to confirm the results (SOP NBU/131). Once growth was evident on this confirmation plate, the culture was assessed with respect to the colony morphology and Gram stained (according to SOP NBU/111) as a further confirmatory test. This is a suitable method as each bacterium tested has distinctive morphology both macro- and microscopically.

Paenibacillus alvei = test: as above; format: cell-based; parameters: key: +: Growth present; +^a: weak growth seen, occurred later than lower concentrations; conditions: 34° C.
Protocol: as §1, §2, §3, §4, §5, §6

Melissococcus plutonius = test: as above; format: cell-based; parameters: key: +: Growth present; +^a: weak growth seen, occurred later than lower concentrations; conditions: 34° C.
Protocol: as §1, §2, §3, §4, §5, §6

[3] = tested on: Brevibacillus laterosporus; test: as above; format: cell-based; parameters: key: +: Growth present; +^a: weak growth seen, occurred later than lower concentrations; conditions: 34° C.
Protocol: as §1, §2, §3, §4, §5, §6

[4] = tested on: E. coli, Listeria, E. faecalis and other bacteria associated with animal diseases; conditions: laboratory tests of earlier application WO03/024437; cited from earlier work
P. alvei = test: Investigation into bacteriostatic or bactericidal effects (Study 2); format: cell-based, Paenibacillus alvei; conditions: conclusion from subculture into fresh media
Protocol: (§7) Where there was no growth in a replicate, at the end of one week the culture was plated out for single colonies on the appropriate agar. This was to determine whether the test item had bactericidal activity, where all the bacterial cells are killed, or bacteriostatic action, where the cells are unable to replicate in the presence of the substance, but will grow when it is removed. A further test, where 0.5 ml of the broth was transferred into 4.5 ml fresh broth (giving a 1:10 dilution) was also undertaken. There would still be some Allicin in the broth, but it should be present at a low enough concentration for growth not to be affected. Where growth occurred in the absence of Allicin, the broth was examined microscopically and plated out for single colonies to confirm the identity of the bacterium.

P. larvae subsp. larvae = test: as above; format: cell-based, Paenibacillus larvae subsp. larvae; parameters: key to Growth in broth after exposure to test Item at concentration indicated: *: Growth present in one replicate only
Protocol: as §7

E. coli = test: Zones of Inhibition against common chicken bacteria; format: cell-based; conditions: Escherichia coli
P. l. pulvifaciens = test: Minimum bactericidal concentration by plating out MIC cultures; format: cell-based, Paenibacillus larvae subsp. pulvifaciens; conditions: range of 1000 ppm to 25 ppm
Protocol: Positive controls contained the antibiotic Tylosin (Tylan® 50, Elanco Animal Health Inc., IN) and negative controls contained no antibiotics. Bacterial (P. l. larvae, P. l. pulviphaciens) or fungal (A. apis, A. aggregata) spores (100 μl of approximately 10^8-10^9 spores/ml) were added to a 2.5 ml of bacterial or fungal liquid medium containing serial dilutions of allicin. Cultures were incubated in a shaker at 35° C. and 215 rpm. The optical densities of cultures (OD 600) were recorded 24 h and 48 h post inoculation, depending on the growth rate of the microbial species. […] Minimum bactericidal concentration values (NBC) were determined for allicin by plating out 100 μl of bacterial cultures derived from the MIC assay. Plates were incubated 24 h and 48 h at 33° C. and 6% CO2 to observe microbial growth.

C=CCS[S+]([O-])CC=C (stereo not shown) [allicin, Allicin]
time bacterial overgrowth prevented ([1]; 250 ppm): up to 7 days | time bacterial overgrowth prevented ([1]; 375 ppm): up to 10 days | time bacterial overgrowth prevented ([1]; 500 ppm): up to 14 days | allicin concentration demonstrating prevention of growth of E. coli and Salmonella ([1]; meat, equivalent to 0.0250% w/v): 250 ppm | Growth present at test item concentration ([2]; 10 ppm): + | Growth present at test item concentration ([2]; 25 ppm): +^a | Growth present at test item concentration (Paenibacillus alvei; 10 ppm): + | Growth present at test item concentration (Paenibacillus alvei; 25 ppm): + | Growth present at test item concentration (Paenibacillus alvei; 50 ppm): + | Growth present at test item concentration (Paenibacillus alvei; 100 ppm): +^a | Growth present at test item concentration (Melissococcus plutonius; 10 ppm): + | Growth present at test item concentration (Melissococcus plutonius; 25 ppm): + | Growth present at test item concentration (Melissococcus plutonius; 50 ppm): + | Growth present at test item concentration (Melissococcus plutonius; 100 ppm): +^a | Growth present at test item concentration ([3]; 10 ppm): + | Growth present at test item concentration ([3]; 25 ppm): + | Growth present at test item concentration ([3]; 50 ppm): + | Growth present at test item concentration ([3]; 100 ppm): +^a | concentration at which allicin can kill the bacteria [4]: up to 500 ppm | bacteriostatic or bactericidal effect (P. alvei): did not kill all bacteria | Growth in broth after exposure to test Item at concentration indicated (P. larvae subsp. larvae; 50 ppm, 10% inoculum transferred to fresh broth): * | bacteriostatic or bactericidal effect (P. larvae subsp. larvae; conclusion from subculture after exposure): a bactericidal effect appeared to be observed | zone of inhibition at 166 ppm (E. coli; 166 ppm (1:6 dilution)): 0 mm | zone of inhibition at 1000 ppm (E. coli; 1000 ppm): 17 mm | bacteriostatic or bactericidal activity (P. l. pulvifaciens): only bacteriostatic (no bactericidal) activity
